Results on seven compounds are retold here after article PMC11156913, “New sulfonamide-based glycosides incorporated 1,2,3-triazole as cytotoxic agents through VEGFR-2 and carbonic anhydrase inhibitory activity” (Scientific Reports, 2024).

The subject of data set [1] is lung A-549 cancer cell line. Description: In vitro cytotoxic activity (MTT assay), A-549. The conditions noted are these: Homo sapiens; for inhibition at 100 µM: A549, 48 h, read-out: % inhibition ± SD A-549.
For data set [2], the system named is liver HepG-2 cancer cell line. Description: In vitro cytotoxic activity (MTT assay), HepG-2. The conditions noted are these: for IC50: HepG2, read-out: IC50 (mean ± SD) HepG-2. From the text:
(§1) The supplemental file contained extra details.
In general terms: Tetrazolium dyes change colour on reduction, which living cells bring about.

Data set [3] deals with colorectal HCT-116 cancer cell line. Description: In vitro cytotoxic activity (MTT assay), HCT-116. The conditions noted are these: Homo sapiens, read-out: % inhibition ± SD HCT-116. In kind it is cell-based, human.
Text: as §1

Data set [4] concerns breast MCF-7 cancer cell line. Description: In vitro cytotoxic activity (MTT assay), MCF-7. The conditions noted are these: for inhibition at 100 µM / IC50: Homo sapiens; for inhibition at 100 µM: read-out: % inhibition ± SD MCF-7; for IC50: MCF-7 cells, MTT, read-out: IC50 (mean ± SD) MCF-7. In kind it is cell-based, human.
Text: as §1

Where two headings read alike, the source gives them in different places.

As a reminder, the inhibition is the percentage by which the read-out fell short of the control. The term IC50 denotes the concentration that gives 50% inhibition. The term melting point denotes the temperature, or range, at which the solid turns liquid. The compound `CCCCNS(=O)(=O)c1ccc(-n2cc(CO[C@@H]3OC[C@@H](O)[C@H](O)[C@H]3O)nn2)cc1` [Compound 12, N-butyl-4-(4-([β-D-Xylopyranosyl]oxymethyl)-1H-1,2,3-triazol-1-yl)benzenesulfonamide] showed a melting point of 150 to 152 °C. Besides, the inhibition at 100 µM in data set [1] was determined as 17.8 ± 0.95%. For the same compound, in data set [2] (12.5 µM), the “percentage cytotoxicity on HepG-2” value is given as 33.95±0.33%. Besides, the “percentage cytotoxicity on HepG-2” value in data set [2] (25 µM) is on record as 44.70±1.13%. For the same compound, the “percentage cytotoxicity on HepG-2” value in data set [2] (50 µM) was 55.95±0.44%. For the same compound, the “percentage cytotoxicity on HepG-2” value in data set [2] (100 µM) was 62.86±1.19%. The IC50 in data set [2] (Homo sapiens) is 36.44 ± 0.12 µM. For the same compound, in data set [3] (HCT-116, 48 h), the inhibition at 100 µM came to 0%. Further, the inhibition at 100 µM in data set [4] (MCF7, 48 h) was 41.4 ± 0.91%.
`CCCCNS(=O)(=O)c1ccc(N=[N+]=[N-])cc1` [Compound 3, 4-Azido-N-butylbenzenesulfonamide] showed a melting point of 47 to 49 °C. Also, the inhibition at 100 µM in data set [1] is 20.47 ± 0.15%. In addition, the “percentage cytotoxicity on HepG-2” value in data set [2] (12.5 µM) was found to be 3.76±5.32%. Moreover, the “percentage cytotoxicity on HepG-2” value in data set [2] (25 µM) is 19.08±1.88%. The “percentage cytotoxicity on HepG-2” value in data set [2] (50 µM) is 49.40±1.91%. Further, the “percentage cytotoxicity on HepG-2” value in data set [2] (100 µM) came to 71.40±0.91%. In addition, the IC50 in data set [2] (Homo sapiens) is 57.6 ± 12.2 µM. In data set [3] (HCT-116, 100 µM, 48 h), the inhibition at 100 µM was 16.7 ± 0.6%. In addition, the inhibition at 100 µM in data set [4] (MCF7, 100 µM, 48 h) was 51.97 ± 0.29%.
Regarding `CCCCNS(=O)(=O)c1ccc(-n2cc(CO[C@@H]3O[C@H](COC(C)=O)[C@H](OC(C)=O)[C@H](OC(C)=O)[C@H]3OC(C)=O)nn2)cc1` [Compound 6, N-butyl-4-(4-([2,3,4,6-tetra-O-acetyl-β-D-galactopyranosyl]oxymethyl)-1H-1,2,3-triazol-1-yl)benzenesulfonamide], the inhibition at 100 µM is 32.53 ± 0.15% in data set [1]; 8.93 ± 0.74% in data set [2] (Homo sapiens, HepG2, 48 h, read-out: % inhibition ± SD HepG-2); 0% in data set [3] (HCT-116, 100 µM, 48 h); 37.5 ± 0.52% in data set [4] (MCF7, 100 µM, 48 h).
For `CCCCNS(=O)(=O)c1ccc(-n2cc(CO[C@@H]3OC[C@@H](OC(C)=O)[C@H](OC(C)=O)[C@H]3OC(C)=O)nn2)cc1` [Compound 8, N-butyl-4-(4-([2,3,4-tri-O-acetyl-β-D-xylopyranosyl]oxymethyl)-1H-1,2,3-triazol-1-yl)benzenesulfonamide], the inhibition at 100 µM in data set [1] was 58.1 ± 0.56%; in data set [3] (HCT-116, 100 µM, 48 h) it was 41.05 ± 0.18%; in data set [4] (MCF7, 100 µM, 48 h) it was 66 ± 0.69%. Moreover, the “percentage cytotoxicity on HepG-2” value in data set [2] (12.5 µM) is on record as 23.15±0.43%; in data set [2] (25 µM), 32.80±2.12%; in data set [2] (50 µM) it was 50.73±1.45%; in data set [2] (100 µM) it was 69.17±0.21%. The 50% inhibitory concentration (IC50) was found to be 47 ± 0.51 µM in data set [2] (Homo sapiens) and 46.49 ± 0.42 µM in data set [4] (MCF7). The “percentage cytotoxicity on MCF-7” value is 29.56±1.66% in data set [4] (12.5 µM), 36.13±2.06% in data set [4] (25 µM), 49.80±0.41% in data set [4] (50 µM) and 66.04±0.69% in data set [4] (100 µM).
`O=S(=O)(NC1CCCCC1)c1ccc(-n2cc(CO[C@@H]3O[C@H](CO)[C@H](O)[C@H](O)[C@H]3O)nn2)cc1` [Compound 11, N-cyclohexyl-4-(4-([β-D-galactopyranosyl]oxymethyl)-1H-1,2,3-triazol-1-yl)benzenesulfonamide]: the melting point was in the range of 118 to 120 °C. Also, the inhibition at 100 µM in data set [1] was 30.1 ± 0.62%. Besides, the “percentage cytotoxicity on HepG-2” value in data set [2] (12.5 µM) was found to be 44.80±0.50%. In addition, the “percentage cytotoxicity on HepG-2” value in data set [2] (25 µM) is listed as 57.70±0.87%. In data set [2] (50 µM), the “percentage cytotoxicity on HepG-2” value came out at 62.70±0.36%. Besides, the “percentage cytotoxicity on HepG-2” value in data set [2] (100 µM) was 73.85±1.06%. Also, the IC50 in data set [2] (Homo sapiens) came out at 16.9 ± 0.09 µM. The inhibition at 100 µM in data set [3] (HCT-116, 100 µM, 48 h) is 39 ± 0.96%. Further, in data set [4] (MCF7, 100 µM, 48 h), the inhibition at 100 µM amounted to 20.8 ± 0.79%.
In the case of `CCN(CC)CCNC(=O)c1c(C)[nH]c(/C=C2\C(=O)Nc3ccc(F)cc32)c1C` [Sunitinib, reference compound], the IC50 in data set [1] (A549, read-out: IC50 (mean ± SD) A-549) was determined as 10.1 ± 0.5 µM.
Turning to `COc1cccc2c1C(=O)c1c(O)c3c(c(O)c1C2=O)C[C@@](O)(C(=O)CO)C[C@@H]3O[C@H]1C[C@H](N)[C@H](O)[C@H](C)O1` [Doxorubicin, reference compound], the inhibition at 100 µM came out at 100 ± 0.2% in data set [1]; 100 ± 0.25% in data set [3] (HCT-116, 100 µM, 48 h); 100 ± 0.08% in data set [4] (MCF7, 100 µM, 48 h). Moreover, the IC50 in data set [2] (Homo sapiens) is 13.8 ± 0.45 µM; in data set [4] (MCF7) it was 17.4 ± 0.46 µM.
